Source: patent publication US11401243B2, “Quinoline derived small molecule inhibitors of nicotinamide N-methyltransferase (NNMT) and uses thereof” (priority 2017, dated 2022)
“Also recorded” adds a separate entry of the source. Read-outs that look alike come from different tables or passages of the source.

Columns and labels:
[1] = Parallel artificial membrane permeability assay (PAMPA); assay type: in vitro ADME; details: for Flux / Papp at 4 h, 400 μM: 400 μM in PBS, 4 h, room temperature; for Permeability Classification (passive transport): BCS classification; for Papp at 4 h, 400 μM: read-out: Flux
Protocol: Samples were tested in triplicates in three separate experiments.

human NNMT (mt-hNNMT) = target: T1, human NNMT (mt-hNNMT) (Homo sapiens, UniProt P40261, E101A/E103A/K100A); test: NNMT activity assay (HPLC-UV detection of MNA), NNMT IC50 curves; details: for IC50: NI = no observable inhibition
T1 sequence (P40261 1-261 K100A/E101A/E103A limits assumed): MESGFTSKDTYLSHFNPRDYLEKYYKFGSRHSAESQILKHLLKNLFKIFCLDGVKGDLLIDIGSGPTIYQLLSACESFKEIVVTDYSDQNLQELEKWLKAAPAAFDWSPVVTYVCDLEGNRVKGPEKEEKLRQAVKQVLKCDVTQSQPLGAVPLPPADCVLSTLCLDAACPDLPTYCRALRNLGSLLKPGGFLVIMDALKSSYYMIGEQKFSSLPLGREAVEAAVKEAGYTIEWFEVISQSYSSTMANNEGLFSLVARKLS

[2] = system: 3T3-L1 pre-adipocytes cells; test: MTT cell viability assay; assay type: cell-based; details: 3T3-L1 pre-adipocytes, 24 h; for cytotoxicity: 600 μM (highest concentration tested)
Protocol: Cells were treated for 24 h with 0.1-600 μM NNMT inhibitors in cell culture media. A 24 h time point was chosen based on a previous report of using this time period for transfecting or treating 3T3-L1 cells with NNMT anti-sense oligonucleotides or a small molecule NNMT product inhibitor (1-MNA), respectively, for phenotypic measures. MTT (3-(4,5-dimethylthiazol-2-yl)-2,5-diphenyltetrazolium bromide) (ATCC; Manassas, Va., USA) was added to each well and assayed according to the manufacturer's instructions. Absorbance corresponding to the amount of formazan dye produced by treated cells was normalized to that produced by control (untreated) cells to calculate % viable cells in the treated samples.

Caco-2 cells = test: Bi-directional permeability assay with Caco-2 cells; details: Caco-2
[3] = as above; details: human; for efflux ratio at 2 h, 10 μM: Caco-2; for Papp A→B at 2 h, 10 μM / Papp B→A at 2 h, 10 μM: Caco-2, pH 7.4
[4] = system: NNMT activity in 3T3-L1 pre-adipocytes and differentiated adipocytes; test: Quantitative measurement of NNMT reaction product 1-MNA in cultured cells (LC/MS/MS); assay type: cell-based; details: 10 μM, 24 h
Protocol: Differentiation of 3T3-L1 pre-adipocytes. […] Briefly, standard culture media was supplemented with scheduled addition of adipogenic agents [3-isobutyl-1methyl xanthine (IBMX), Sigma Aldrich; MO, USA), dexamethasone (Sigma Aldrich; MO, USA), insulin (Gibco Life Technologies Inc.; Grand Island, N.Y., USA)] over 10 days to promote differentiation of 3T3-L1 fibroblasts into adipocytes; a combination of 1 mM IBMX, 1 μM dexamethasone, and 10 μg/ml of insulin in media were added to fully confluent 3T3-L1 fibroblasts for three days (days 0-3) to initiate differentiation. At day 3, the media was replaced with culture media supplemented with insulin (10 μg/ml). After day 6, cells were maintained in culture media until described experiments were begun (days 8-10).
Cellular 1-MNA concentrations were determined using an ultra-sensitive high-resolution AB Sciex 6500 Q-trap mass spectrometer coupled to an Agilent 1260 ultra-high pressure liquid chromatography (LC/MS/MS) system. Using multiple reaction monitoring (MRM) positive ion mode, the 1-MNA NNMT reaction product was quantified from peak area ratios using AB Sciex Analyst and MultiQuant 2.1 software and the parent precursor and Q3 masses set to m/z 137.1 and 94.1, respectively. Fragment ions at m/z of 92.1 and 77.9 were additionally used for the detection and confirmation of 1-MNA, respectively. […]. To determine the effect of NNMT inhibitor on NNMT activity in the pre-adipocytes and differentiated adipocytes (8×10^4 cells/well seeded prior to beginning differentiation), cells were treated with 30 μM inhibitor for 24 h. Similarly, to compare the relative effects of multiple NNMT inhibitors on NNMT activity in cultured adipocytes, differentiated adipocytes in 6-well plates were treated with 10 μM test compound for 24 h. Following treatment, media was replaced with 80% (v/v) methanol (cooled to −80° C.) containing 500 nmol 6-chloronicotinamide (6-CN) as an internal standard (IS) to extract cellular metabolites. Adherent cells were scrapped, then centrifuged at 4° C. and 13000 g for 15 min, and the resulting supernatants processed using established protocols. […]. Data were subsequently normalized to the IS peak area and transformed as % control values for cross-sample comparisons. […] Choice of inhibitor concentrations and time period was chosen based on the results from the MTT studies.

[5] = NNMT Inhibition IC50, mean ± SD of duplicate or triplicate measurements

1-methylnicotinamide [reference compound]
Flux [1]: 0 cm/s | Permeability Classification (passive transport) [1]: No permeability | Permeability Classification (passive transport) ([1]; listed as 1-MNA): no passive permeability

C[n+]1cccc2ccccc21 [1a, 1-methylquinolinium]
IC50 (human NNMT (mt-hNNMT); [5]): 12.1 ± 3.1 µM | Flux [1]: 0 cm/s | Permeability Classification (passive transport) [1]: No permeability | Permeability Classification (passive transport) ([1]; listed as 1-MQ): lacked passive diffusion properties

Cc1ccc2ccccc2[n+]1C [1b]
IC50 (human NNMT (mt-hNNMT); [5]): 21 ± 2.1 µM

C[n+]1c(N)ccc2ccccc21.[I-] [1c, 2-amino-1-methylquinolin-1-ium Iodide]
inhibitory activity against NNMT (in words) (human NNMT (mt-hNNMT)): exhibited inhibitory activity | IC50 (human NNMT (mt-hNNMT); [5]): 6.3 ± 1.1 µM

C[n+]1cc(N)cc2ccccc21 [1d]
IC50 (human NNMT (mt-hNNMT); [5]): 2.9 µM

C[n+]1cc(C#N)cc2ccccc21 [1e]
IC50 (human NNMT (mt-hNNMT); [5]): 23.8 ± 5.6 µM

CNc1cc2ccccc2[n+](C)c1.[I-] [1f, 1-methyl-3-(methylamino)quinolin-1-ium Iodide]
inhibitory activity against NNMT (in words) (human NNMT (mt-hNNMT)): exhibited inhibitory activity | IC50 (human NNMT (mt-hNNMT); [5]): 4 ± 1.5 µM

C[n+]1cc(Nc2ccccc2)cc2ccccc21 [1g]
IC50 (human NNMT (mt-hNNMT); [5]): > 1000 µM

Cc1cc[n+](C)c2ccccc12 [1h]
IC50 (human NNMT (mt-hNNMT); [5]): 7.5 ± 2.2 µM

C[n+]1ccc(N)c2ccccc21 [1i]
IC50 (human NNMT (mt-hNNMT); [5]): 11.4 ± 2.1 µM

C[n+]1cccc2cc(F)ccc21 [1k]
IC50 (human NNMT (mt-hNNMT); [5]): 5.7 ± 1.8 µM

C[n+]1cccc2cc(N)ccc21.[I-] [1m, 6-amino-1-methylquinolin-1-ium Iodide]
inhibitory activity against NNMT (in words) (human NNMT (mt-hNNMT)): exhibited inhibitory activity | IC50 (human NNMT (mt-hNNMT); [5]): 34.4 ± 9.6 µM

COc1ccc2c(ccc[n+]2C)c1 [1n]
IC50 (human NNMT (mt-hNNMT); [5]): 120 ± 50.1 µM

C[n+]1cccc2ccc(N)cc21 [1o]
cell viability ([2]; 10 μM): did not impact cell viability | cytotoxicity [2]: ~40% | cytotoxicity relative to untreated cells ([2]; 100-300 μM): modest cytotoxicity | Classification (active transport / efflux) (Caco-2 cells; listed as 7-amino-1MQ): no detectable efflux; also recorded: High permeability | efflux ratio at 2 h, 10 μM [3]: 1.52 | Papp A→B at 2 h, 10 μM [3]: 26 ×10⁻⁶ cm/s | Papp B→A at 2 h, 10 μM [3]: 39.6 ×10⁻⁶ cm/s | IC50 (human NNMT (mt-hNNMT); [5]): 2.6 ± 0.5 µM | Papp at 4 h, 400 μM [1]: 2.05 ×10⁻⁶ cm/s | Permeability Classification (passive transport) ([1]; listed as 7-amino-1MQ): high passive and active transport; also recorded: High permeability

C[n+]1cccc2ccc(O)cc21 [1p]
IC50 (human NNMT (mt-hNNMT); [5]): 709 ± 179 µM

C[n+]1cccc2cccc(O)c21 [1r]
IC50 (human NNMT (mt-hNNMT); [5]): 95.2 ± 21 µM

CC[n+]1cccc2ccccc21 [1s]
IC50 (human NNMT (mt-hNNMT); [5]): 27.1 ± 5.4 µM

COCC[n+]1cccc2ccccc21 [1t]
IC50 (human NNMT (mt-hNNMT); [5]): > 1000 µM

O=C(C[n+]1cccc2ccccc21)c1ccccc1 [1u]
IC50 (human NNMT (mt-hNNMT); [5]): > 1000 µM

CC(C(=O)c1ccc(Br)cc1)[n+]1cccc2ccccc21 (stereo not shown) [1v]
IC50 (human NNMT (mt-hNNMT); [5]): > 1000 µM

O=C1C2CC=C(Cl)CC2C(=O)N1CCC[n+]1cccc2ccccc21 (stereo not shown) [1w]
IC50 (human NNMT (mt-hNNMT); [5]): > 1000 µM

CC[n+]1ccc(C)c2ccccc21 [2a]
IC50 (human NNMT (mt-hNNMT); [5]): 8.7 ± 2.6 µM

CC[n+]1cccc2cccc(C)c21 [2b]
IC50 (human NNMT (mt-hNNMT); [5]): 3.1 ± 1.4 µM

Cc1cc[n+](CCO)c2ccccc12 [2c]
IC50 (human NNMT (mt-hNNMT); [5]): 33.5 ± 9.9 µM

CC(=O)C[n+]1cccc2cccc(O)c21 [2d]
IC50 (human NNMT (mt-hNNMT); [5]): 40.6 ± 13 µM

OC(CBr)C[n+]1cc(Br)cc2ccccc21 (stereo not shown) [2e]
IC50 (human NNMT (mt-hNNMT); [5]): > 1000 µM

CCC[n+]1cccc2cc(C)ccc21 [2f]
IC50 (human NNMT (mt-hNNMT); [5]): > 1000 µM

CC(=O)C[n+]1cccc2cc(Cl)ccc21 [2g]
IC50 (human NNMT (mt-hNNMT); [5]): > 1000 µM

CC(=O)C[n+]1cccc2cc(O)ccc21 [2h]
IC50 (human NNMT (mt-hNNMT); [5]): > 1000 µM

Cc1ccc2c(ccc[n+]2CC(=O)c2ccccc2)c1 [2i]
IC50 (human NNMT (mt-hNNMT); read-out: NNMT Inhibition IC50, mean ± SD of duplicate or triplicate measurements): > 1000 µM

C[n+]1cc(N)cc2cc(F)ccc21 [2j, 3-amino-6-fluoro-1-methylquinolin-1-ium]
inhibitory activity against NNMT (in words) (human NNMT (mt-hNNMT)): inhibitory activity | IC50 (human NNMT (mt-hNNMT); [5]): 1.2 ± 0.2 µM | Papp at 4 h, 400 μM [1]: 1.08 ×10⁻⁶ cm/s | Permeability Classification (passive transport) [1]: Moderate permeability | 1-MNA levels in differentiated adipocytes relative to control [4]: significantly decreased

Cc1ccc(C(F)(F)F)c2ccc[n+](C)c12 [2k]
inhibitory activity against NNMT (in words) (human NNMT (mt-hNNMT)): inhibitory activity | IC50 (human NNMT (mt-hNNMT); [5]): 87 ± 26.1 µM

C[n+]1ccc(Cl)c2cccc(C(F)(F)F)c21.O=S(=O)([O-])C(F)(F)F [2l, 4-chloro-1-methyl-8-(trifluoromethyl)quinolin-1-ium Trifluoromethanesulfonate]
inhibitory activity against NNMT (in words) (human NNMT (mt-hNNMT)): inhibitory activity | IC50 (human NNMT (mt-hNNMT); [5]): > 1000 µM

C[n+]1c(N)c(N)cc2ccccc21 [2m]
cell viability ([2]; 300 μM): did not impact cell viability | cytotoxicity [2]: ~40% | Classification (active transport / efflux) (Caco-2 cells; listed as 2,3-diamine-1MQ): Moderate permeability | Classification (active transport / efflux) (Caco-2 cells; listed as 2,3-diamino-1MQ): moderate bi-directional active transport with moderate efflux ratio | efflux ratio at 2 h, 10 μM [3]: 4.03 | Papp A→B at 2 h, 10 μM [3]: 5.27 ×10⁻⁶ cm/s | Papp B→A at 2 h, 10 μM [3]: 21.2 ×10⁻⁶ cm/s | inhibitory activity against NNMT (in words) (human NNMT (mt-hNNMT)): inhibitory activity | IC50 (human NNMT (mt-hNNMT); [5]): 2.8 ± 0.5 µM | Papp at 4 h, 400 μM [1]: 3.9 ×10⁻⁶ cm/s | Permeability Classification (passive transport) ([1]; listed as 2,3-diamine-1MQ): High permeability | Permeability Classification (passive transport) ([1]; listed as 2,3-diamino-1MQ): high passive permeability | 1-MNA levels in differentiated adipocytes relative to control [4]: significantly decreased

Cc1ccc2c(ccc(C)[n+]2C)c1 [2n]
IC50 (human NNMT (mt-hNNMT); [5]): > 1000 µM

c1ccc2ncccc2c1 [Quinoline]
Flux [1]: 3.39e-05 cm/s | Permeability Classification (passive transport) [1]: High permeability

CNC(=C[N+](=O)[O-])NCCSCc1ccc(CN(C)C)o1 [Ranitidine, reference compound]
Classification (active transport / efflux) (Caco-2 cells): Low permeability
